PubChem BioAssay AID248 (DTP/NCI, 2004)
Where “and” joins values, the source holds several entries; their conditions need not be identical. Identical values can stand only once. Inconclusive results and toxic doses are left out. No stated cut-off is given here; in the data, active means T/C of 150% or more; inactive means T/C below 125%.

Tested on: L1210 leukemia ip in BDF1 mice, survival T/C
Experiment: NCI In Vivo Anticancer Drug Screen. Data for tumor model L1210 Leukemia (intraperitoneal) in B6D2F1 (BDF1) mice
Details: endpoint: mean survival time, higher = longer survival
How it was run: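 Read-out is survival time, reported as the treated-group measurement over the vehicle-control measurement.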

[1] = dose: 25.0 mg/kg/injection, schedule: Q01DX009 (ip), vehicle: saline with Tween-80
[2] = dose: 50.0 mg/kg/injection, schedule: Q01DX009 (ip), vehicle: saline with Tween-80
[3] = dose: 50.0 mg/kg/injection, schedule: Q04DX002 (ip), vehicle: saline with Tween-80
[4] = dose: 100.0 mg/kg/injection, schedule: Q01DX009 (ip), vehicle: saline with Tween-80
[5] = dose: 200.0 mg/kg/injection, schedule: Q01DX009 (ip), vehicle: saline with Tween-80
[6] = dose: 200.0 mg/kg/injection, schedule: Q04DX002 (ip), vehicle: saline with Tween-80
[7] = dose: 200.0 mg/kg/injection, schedule: Q04DX003 (ip), vehicle: saline with Tween-80
[8] = dose: 400.0 mg/kg/injection, schedule: Q04DX002 (ip), vehicle: saline with Tween-80
[9] = dose: 100.0 mg/kg/injection, schedule: Q04DX002 (ip), vehicle: Klucel (hydroxypropylcellulose) (HPC)
[10] = dose: 200.0 mg/kg/injection, schedule: Q04DX002 (ip), vehicle: Klucel (hydroxypropylcellulose) (HPC)
[11] = dose: 400.0 mg/kg/injection, schedule: Q04DX002 (ip), vehicle: Klucel (hydroxypropylcellulose) (HPC)
[12] = dose: 100.0 mg/kg/injection, schedule: Q01DX001 (ip), vehicle: saline
[13] = dose: 400.0 mg/kg/injection, schedule: Q01DX001 (ip), vehicle: saline
[14] = dose: 100.0 mg/kg/injection, schedule: Q01DX009 (ip), vehicle: Klucel (hydroxypropylcellulose) (HPC)
[15] = dose: 200.0 mg/kg/injection, schedule: Q01DX009 (ip), vehicle: Klucel (hydroxypropylcellulose) (HPC)
[16] = dose: 400.0 mg/kg/injection, schedule: Q01DX009 (ip), vehicle: Klucel (hydroxypropylcellulose) (HPC)
[17] = dose: 100.0 mg/kg/injection, schedule: Q04DX002 (ip), vehicle: saline with Tween-80
[18] = dose: 25.0 mg/kg/injection, schedule: Q01DX009 (ip), vehicle: saline

Measured: T/C

CCOC(=O)c1ccc(NC(=O)Nc2ccc(NC(C)=O)cc2)cc1
inactive: [1] 89 % of control | dose: 25.0 mg/kg/injection, schedule: Q04DX002 (ip), vehicle: saline with Tween-80 86 % of control | dose: 25.0 mg/kg/injection, schedule: Q04DX003 (ip), vehicle: saline with Tween-80 88 % of control | dose: 50.0 mg/kg/injection, schedule: Q01DX001 (ip), vehicle: saline with Tween-80 88 % of control | [2] 89 % of control | [3] 86 % of control and 88 % of control | dose: 50.0 mg/kg/injection, schedule: Q04DX003 (ip), vehicle: saline with Tween-80 86 % of control | dose: 100.0 mg/kg/injection, schedule: Q01DX001 (ip), vehicle: saline with Tween-80 88 % of control | [4] 91 % of control | dose: 200.0 mg/kg/injection, schedule: Q01DX001 (ip), vehicle: saline with Tween-80 93 % of control | [5] 91 % of control | [6] 99 % of control | [7] 90 % of control | [8] 106 % of control

Cc1cc(Cl)ccc1OC(=O)NC1CCCCC1
inactive: [9] 107 % of control | [10] 96 % of control | [11] 107 % of control

c1ccc(CCN2CCCCC2)cc1
inactive: dose: 10.0 mg/kg/injection, schedule: Q01DX001 (ip), vehicle: saline 95 % of control | dose: 20.0 mg/kg/injection, schedule: Q01DX001 (ip), vehicle: saline 116 % of control | dose: 40.0 mg/kg/injection, schedule: Q01DX001 (ip), vehicle: saline 96 % of control

CNC(=O)OC1CCCCC1CN(C)C (stereo not drawn)
inactive: dose: 55.0 mg/kg/injection, schedule: Q01DX Z (ip), vehicle: saline 91 % of control | dose: 83.0 mg/kg/injection, schedule: Q01DX Z (ip), vehicle: saline 109 % of control | dose: 125.0 mg/kg/injection, schedule: Q01DX Z (ip), vehicle: saline 113 % of control

Cc1ccccc1N=NN(C)C
inactive: dose: 100.0 mg/kg/injection, schedule: Q01DX001 (ip), vehicle: carboxymethylcellulose (CMC) 106 % of control | dose: 200.0 mg/kg/injection, schedule: Q01DX001 (ip), vehicle: carboxymethylcellulose (CMC) 106 % of control

CCCCCCCCCCCCCCCCCCNC(=O)Nc1ccc(OC)cc1OC
inactive: [9] 101 % of control | [10] 90 % of control | [11] 90 % of control

NC=O
inactive: dose: 62.5 mg/kg/injection, schedule: Q01DX009 (ip), vehicle: saline 112 % of control | dose: 62.5 mg/kg/injection, schedule: Q01DX015 (ip), vehicle: saline 95 % of control | [12] 94 % of control and 109 % of control | dose: 125.0 mg/kg/injection, schedule: Q01DX009 (ip), vehicle: saline 107 % of control | dose: 125.0 mg/kg/injection, schedule: Q01DX015 (ip), vehicle: saline 101 % of control | dose: 200.0 mg/kg/injection, schedule: Q01DX001 (ip), vehicle: saline 101 % of control and 92 % of control | dose: 250.0 mg/kg/injection, schedule: Q01DX009 (ip), vehicle: saline 118 % of control | dose: 250.0 mg/kg/injection, schedule: Q01DX015 (ip), vehicle: saline 110 % of control | [13] 100 % of control and 101 % of control | dose: 500.0 mg/kg/injection, schedule: Q01DX015 (ip), vehicle: saline 92 % of control | dose: 800.0 mg/kg/injection, schedule: Q01DX001 (ip), vehicle: saline 106 % of control

CCOC(=O)C(Cc1ccccc1)(NC=O)C(=O)OCC
inactive: [14] 94 % of control | [15] 98 % of control | [16] 96 % of control

CN(C)N=Nc1ccc(C(=O)O)cc1
inactive: [1] 108 % of control | [2] 113 % of control and 120 % of control | dose: 59.0 mg/kg/injection, schedule: Q04DX003 (ip), vehicle: saline 108 % of control | dose: 88.0 mg/kg/injection, schedule: Q04DX003 (ip), vehicle: saline 113 % of control | dose: 100.0 mg/kg/injection, schedule: Q04DX003 (ip), vehicle: saline 109 % of control | dose: 133.0 mg/kg/injection, schedule: Q04DX003 (ip), vehicle: saline 119 % of control | [5] 117 % of control | dose: 400.0 mg/kg/injection, schedule: Q04DX003 (ip), vehicle: saline 105 % of control

O=C(Nc1ccccc1C(=O)c1ccccc1)c1ccc(Cl)cc1Cl
inactive: [2] 105 % of control | [4] 94 % of control | [5] 87 % of control

CC(C)C(C#Cc1ccccc1)N1CCCCC1 (stereo not drawn)
inactive: [17] 103 % of control | [6] 87 % of control | [8] 97 % of control

c1ccc2c(c1)nnn2-c1ccncc1
inactive: [2] 92 % of control | [4] 98 % of control | [5] 90 % of control

O=C(NCc1ccc(Cl)cc1)NC1CCCCC1
inactive: [9] 100 % of control | [10] 100 % of control | [11] 106 % of control

C[N+]1(C)Cc2ccccc2-c2ccccc2C1
inactive: dose: 12.0 mg/kg/injection, schedule: Q04DX003 (ip), vehicle: saline 121 % of control | dose: 12.5 mg/kg/injection, schedule: Q01DX009 (ip), vehicle: saline 103 % of control | [18] 111 % of control | dose: 25.0 mg/kg/injection, schedule: Q04DX003 (ip), vehicle: saline 94 % of control | dose: 50.0 mg/kg/injection, schedule: Q04DX003 (ip), vehicle: saline 106 % of control

CCCCNC(=O)Nc1ccccc1
inactive: dose: 100.0 mg/kg/injection, schedule: Q04DX003 (ip), vehicle: Klucel (hydroxypropylcellulose) (HPC) 100 % of control | dose: 200.0 mg/kg/injection, schedule: Q04DX003 (ip), vehicle: Klucel (hydroxypropylcellulose) (HPC) 112 % of control | dose: 400.0 mg/kg/injection, schedule: Q04DX003 (ip), vehicle: Klucel (hydroxypropylcellulose) (HPC) 96 % of control

CC1(C)N=C(N)N=C(N)N1c1ccc(OCCCOc2ccc(S(=O)(=O)F)cc2)c(Cl)c1
inactive: [18] 100 % of control

CC(C)Oc1c(N(C)CCO)c2cc(Cl)ccc2oc1=O
inactive: dose: 100.0 mg/kg/injection, schedule: Q04DX003 (ip), vehicle: saline with Tween-80 95 % of control | [7] 101 % of control

CCn1cnc2c(SC)ncnc21
inactive: dose: 75.0 mg/kg/injection, schedule: Q01DX001 (ip), vehicle: acetone 101 % of control | dose: 150.0 mg/kg/injection, schedule: Q01DX001 (ip), vehicle: acetone 106 % of control | dose: 300.0 mg/kg/injection, schedule: Q01DX001 (ip), vehicle: acetone 108 % of control

CCOc1ccc(/C=N/NC(=O)c2cccc3ccccc23)cc1OCC
inactive: [12] 90 % of control | [13] 90 % of control

O=[N+]([O-])c1cc([N+](=O)[O-])c2sc3ccccc3c2c1
inactive: [3] 97 % of control | [17] 104 % of control and 90 % of control | [6] 87 % of control | [8] 108 % of control

CC(=O)OC1C(SC(C)(C)C)C=CC(SC(C)(C)C)N1C(C)=O (stereo not drawn)
inactive: [14] 103 % of control | [15] 103 % of control | [16] 95 % of control

CC1CN=C(c2ccc([N+](=O)[O-])cc2)S1 (stereo not drawn)
inactive: dose: 100.0 mg/kg/injection, schedule: Q01DX001 (ip), vehicle: Klucel (hydroxypropylcellulose) (HPC) 100 % of control | dose: 200.0 mg/kg/injection, schedule: Q01DX001 (ip), vehicle: Klucel (hydroxypropylcellulose) (HPC) 95 % of control | dose: 400.0 mg/kg/injection, schedule: Q01DX001 (ip), vehicle: Klucel (hydroxypropylcellulose) (HPC) 94 % of control
